Laboratory results published in patent publication US20250381243A1, “HETEROCYCLES AND USES THEREOF” (Kumquat Biosciences Inc., priority 2022, published 2025).

Each compound was assayed on A549 cells (assay: Cell proliferation assay (CellTiter-Glo), cells with K-Ras G12S mutation). Conditions: Homo sapiens, 500 nM to 5 μM (mixed units), read-out: Inhibition of A549 Cells (IC50).
Assay type: cell-based
How it was run: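 A549 (K-Ras G12S) cells in RPMI-1640 with 10% heat-inactivated FBS, plated in standard or ultra-low-attachment 384-well format, treated next day with a dilution series (e.g., 10-point, 3-fold). Viability read by CellTiter-Glo luminescence about 6 days later; IC50 from four-parameter fit.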

| IC50 [nM] | SMILES |
| --- | --- |
| 500 to 5000 | C[C@H]1CC[C@]2(CN(C(=O)n3cnc(C#N)n3)[C@@H]2C2(C)CC2)CN1c1nc(OC[C@@]23CCCN2C[C@H](F)C3)nc2c(F)c(-c3ccc(F)c4sc(N)c(C#N)c34)c(Cl)cc12 [Compound 232, 1-((1R,4R,7S)-6-(7-(2-amino-3-cyano-7-fluorobenzo[b]thiophen-4-yl)-6-chloro-8-fluoro-2-(((2R,7aS)-2-fluorotetrahydro-1H-pyrrolizin-7a(5H)-yl)methoxy)quinazolin-4-yl)-7-methyl-1-(1-methylcyclopropyl)-2,6-diazaspiro[3.5]nonane-2-carbonyl)-1H-1,2,4-triazole-3-carbonitrile] |
| 500 to 5000 | N#Cc1c(N)sc2c(F)ccc(-c3c(Cl)cc4c(N5CCOC6(C5)CN(C(=O)n5cncn5)C6C5CC5)nc(OC[C@@]56CCCN5C[C@H](F)C6)nc4c3F)c12 (stereo partly drawn) [Compound 156, 2-amino-4-(6-chloro-4-(1-cyclopropyl-2-(1H-1,2,4-triazole-1-carbonyl)-5-oxa-2,8-diazaspiro[3.5]nonan-8-yl)-8-fluoro-2-(((2R,7aS)-2-fluorotetrahydro-1H-pyrrolizin-7a(5H)-yl)methoxy)quinazolin-7-yl)-7-fluorobenzo[b]thiophene-3-carbonitrile] |
| 500 to 5000 | CC1CC2C(CCCN2c2nc(OC[C@@]34CCCN3C[C@H](F)C4)nc3c(F)c(-c4ccc(F)c5sc(N)c(C#N)c45)c(Cl)cc23)N1C(=O)n1cncn1 (stereo partly drawn) [Compound 113, 2-amino-4-(6-chloro-8-fluoro-2-(((2R,7aS)-2-fluorotetrahydro-1H-pyrrolizin-7a(5H)-yl)methoxy)-4-(2-methyl-1-(1H-1,2,4-triazole-1-carbonyl)octahydro-4H-pyrrolo[3,2-b]pyridin-4-yl)quinazolin-7-yl)-7-fluorobenzo[b]thiophene-3-carbonitrile] |
| 500 to 5000 | CC1C2C(CCN2c2nc(OC[C@@]34CCCN3C[C@H](F)C4)nc3c(F)c(-c4ccc(F)c5sc(N)c(C#N)c45)c(Cl)cc23)CN1C(=O)n1cncn1 (single isomer, unassigned) [Compound 121] |
| 500 to 5000 | CCN(C(=O)n1cnc(Cl)n1)C1CCN(c2nc(OC[C@@]34CCCN3C[C@H](F)C4)nc3c(F)c(-c4ccc(F)c5sc(N)c(C#N)c45)c(Cl)cc23)C1C (stereo partly drawn) [Compound 149, N-(1-(7-(2-amino-3-cyano-7-fluorobenzo[b]thiophen-4-yl)-6-chloro-8-fluoro-2-(((2R,7aS)-2-fluorotetrahydro-1H-pyrrolizin-7a(5H)-yl)methoxy)quinazolin-4-yl)-2-methylpyrrolidin-3-yl)-3-chloro-N-ethyl-1H-1,2,4-triazole-1-carboxamide] |

Same assay, conditions: Homo sapiens, ≤500 nM, read-out: Inhibition of A549 Cells (IC50)

| SMILES | IC50 [nM] |
| --- | --- |
| C=CCN(C[C@@H]1CN(C(=O)n2cnc(F)n2)[C@@H]1C1(C)CC1)c1nc(OC[C@@]23CCCN2C[C@H](F)C3)nc2c(F)c(-c3ccc(F)c4sc(N)c(C#N)c34)c(Cl)cc12 [Compound 136, 4-(4-(allyl(((2S,3R)-1-(3-fluoro-1H-1,2,4-triazole-1-carbonyl)-2-(1-methylcyclopropyl)azetidin-3-yl)methyl)amino)-6-chloro-8-fluoro-2-(((2R,7aS)-2-fluorotetrahydro-1H-pyrrolizin-7a(5H)-yl)methoxy)quinazolin-7-yl)-2-amino-7-fluorobenzo[b]thiophene-3-carbonitrile] | ≤ 500 |
| CN(C[C@@H]1CN(C(=O)n2cnc(F)n2)[C@@H]1C1(CC#N)CC1)c1nc(OC[C@@]23CCCN2C[C@H](F)C3)nc2c(F)c(-c3ccc(F)c4sc(N)c(C#N)c34)c(Cl)cc12 [Compound 108, 2-amino-4-(6-chloro-4-((((2S,3R)-2-(1-(cyanomethyl)cyclopropyl)-1-(3-fluoro-1H-1,2,4-triazole-1-carbonyl)azetidin-3-yl)methyl)(methyl)amino)-8-fluoro-2-(((2R,7aS)-2-fluorotetrahydro-1H-pyrrolizin-7a(5H)-yl)methoxy)quinazolin-7-yl)-7-fluorobenzo[b]thiophene-3-carbonitrile] | ≤ 500 |
| N#Cc1c(N)sc2c(F)ccc(-c3c(Cl)cc4c(N5CCC[C@@]6(C5)CN(C(=O)n5cnc(Cl)n5)[C@@H]6C5CCC5)nc(OC[C@@]56CCCN5C[C@H](F)C6)nc4c3F)c12 [Compound 133, 2-amino-4-(6-chloro-4-((1R,4R)-2-(3-chloro-1H-1,2,4-triazole-1-carbonyl)-1-cyclobutyl-2,6-diazaspiro[3.5]nonan-6-yl)-8-fluoro-2-(((2R,7aS)-2-fluorotetrahydro-1H-pyrrolizin-7a(5H)-yl)methoxy)quinazolin-7-yl)-7-fluorobenzo[b]thiophene-3-carbonitrile] | ≤ 500 |
| CC(C)[C@H]1N(C(=O)n2cnc(F)n2)C[C@]12CCCCN(c1nc(OC[C@@]34CCCN3C[C@H](F)C4)nc3c(F)c(-c4ccc(F)c5sc(N)c(C#N)c45)c(Cl)cc13)C2 [Compound 141, 2-amino-4-(6-chloro-8-fluoro-4-((1R,4R)-2-(3-fluoro-1H-1,2,4-triazole-1-carbonyl)-1-isopropyl-2,6-diazaspiro[3.6]decan-6-yl)-2-(((2R,7aS)-2-fluorotetrahydro-1H-pyrrolizin-7a(5H)-yl)methoxy)quinazolin-7-yl)-7-fluorobenzo[b]thiophene-3-carbonitrile] | ≤ 500 |

Other lines, results leading:

| IC50 [nM] | SMILES |
| --- | --- |
| ≤ 500 | CC(C)C1N(C(=O)n2cnc(Cl)n2)CC12CCCN(c1nc(OC[C@@]34CCCN3C[C@H](F)C4)nc3c(F)c(-c4ccc(F)c5sc(N)c(C#N)c45)c(Cl)cc13)C2 (stereo partly drawn) [Compound 175, 2-amino-4-(6-chloro-4-(2-(3-chloro-1H-1,2,4-triazole-1-carbonyl)-1-isopropyl-2,6-diazaspiro[3.5]nonan-6-yl)-8-fluoro-2-(((2R,7aS)-2-fluorotetrahydro-1H-pyrrolizin-7a(5H)-yl)methoxy)quinazolin-7-yl)-7-fluorobenzo[b]thiophene-3-carbonitrile] |
| ≤ 500 | CN(C[C@@H]1CN(C(=O)n2cnc(C#N)n2)[C@@H]1C1(C)CC1)c1nc(OC[C@@]23CCCN2C[C@H](F)C3)nc2c(F)c(-c3ccc(F)c4sc(N)c(C#N)c34)c(Cl)cc12 [Compound 237, 1-((2S,3R)-3-(((7-(2-amino-3-cyano-7-fluorobenzo[b]thiophen-4-yl)-6-chloro-8-fluoro-2-(((2R,7aS)-2-fluorotetrahydro-1H-pyrrolizin-7a(5H)-yl)methoxy)quinazolin-4-yl)(methyl)amino)methyl)-2-(1-methylcyclopropyl)azetidine-1-carbonyl)-1H-1,2,4-triazole-3-carbonitrile] |
| ≤ 500 | N#Cc1c(N)sc2c(F)ccc(-c3c(Cl)cc4c(N5CCC6(C5)CN(C(=O)n5cncn5)C6C5CC5)nc(OC[C@@]56CCCN5C[C@H](F)C6)nc4c3F)c12 (single isomer, unassigned) [Compound 203] |
| ≤ 500 | C[C@H]1CC[C@]2(CN(C(=O)n3cnc(F)n3)[C@@H]2C2CCC2)CN1c1nc(OC[C@@]23CCCN2C[C@H](F)C3)nc2c(F)c(-c3ccc(F)c4sc(N)c(C#N)c34)c(Cl)cc12 [Compound 199, 2-amino-4-(6-chloro-4-((1R,4R,7S)-1-cyclobutyl-2-(3-fluoro-1H-1,2,4-triazole-1-carbonyl)-7-methyl-2,6-diazaspiro[3.5]nonan-6-yl)-8-fluoro-2-(((2R,7aS)-2-fluorotetrahydro-1H-pyrrolizin-7a(5H)-yl)methoxy)quinazolin-7-yl)-7-fluorobenzo[b]thiophene-3-carbonitrile] |
| ≤ 500 | CC1CN(c2nc(OC[C@@]34CCCN3C[C@H](F)C4)nc3c(F)c(-c4ccc(F)c5sc(N)c(C#N)c45)c(Cl)cc23)CC1N(C)C(=O)n1cncn1 (stereo partly drawn) [Compound 206, N-(1-(7-(2-amino-3-cyano-7-fluorobenzo[b]thiophen-4-yl)-6-chloro-8-fluoro-2-(((2R,7aS)-2-fluorotetrahydro-1H-pyrrolizin-7a(5H)-yl)methoxy)quinazolin-4-yl)-4-methylpyrrolidin-3-yl)-N-methyl-1H-1,2,4 triazole-1-carboxamide] |
| ≤ 500 | CC(C)[C@H]1N(C(=O)n2cnc(O)n2)C[C@]12CCCCN(c1nc(OC[C@@]34CCCN3C[C@H](F)C4)nc3c(F)c(-c4ccc(F)c5sc(N)c(C#N)c45)c(Cl)cc13)C2 [Compound 224, 2-amino-4-(6-chloro-8-fluoro-2-(((2R,7aS)-2-fluorotetrahydro-1H-pyrrolizin-7a(5H)-yl)methoxy)-4-((1R,4R)-2-(3-hydroxy-1H-1,2,4-triazole-1-carbonyl)-1-isopropyl-2,6-diazaspiro[3.6]decan-6-yl)quinazolin-7-yl)-7-fluorobenzo[b]thiophene-3-carbonitrile] |
| ≤ 500 | CC(C)[C@H]1N(C(=O)n2cnc(F)n2)C[C@@]12CN(c1nc(OC[C@@]34CCCN3C[C@H](F)C4)nc3c(F)c(-c4ccc(F)c5sc(N)c(C#N)c45)c(Cl)cc13)CCO2 [Compound 204, 2-amino-4-(6-chloro-8-fluoro-4-((1R,4S)-2-(3-fluoro-1H-1,2,4-triazole-1-carbonyl)-1-isopropyl-5-oxa-2,8-diazaspiro[3.5]nonan-8-yl)-2-(((2R,7aS)-2-fluorotetrahydro-1H-pyrrolizin-7a(5H)-yl)methoxy)quinazolin-7-yl)-7-fluorobenzo[b]thiophene-3-carbonitrile] |
| ≤ 500 | CC(C)[C@H]1N(C(=O)n2cnc(C#N)n2)C[C@]12CC[C@H](C)N(c1nc(OC[C@@]34CCCN3C[C@H](F)C4)nc3c(F)c(-c4ccc(F)c5sc(N)c(C#N)c45)c(Cl)cc13)C2 [Compound 227, 1-((1R,4R,7S)-6-(7-(2-amino-3-cyano-7-fluorobenzo[b]thiophen-4-yl)-6-chloro-8-fluoro-2-(((2R,7aS)-2-fluorotetrahydro-1H-pyrrolizin-7a(5H)-yl)methoxy)quinazolin-4-yl)-1-isopropyl-7-methyl-2,6-diazaspiro[3.5]nonane-2-carbonyl)-1H-1,2,4-triazole-3-carbonitrile] |
